Reference: US20240066003A1, “NEURODEVELOPMENTAL DISORDER THERAPY” (Anavex Life Sciences Corp., priority 2016, published 2024)

What was measured:
[1] = tested on: heterozygous MECP2knockout mice (HET); assay: Startle/PPI; assay type: in vivo
Protocol: Studies employed wild type (WT) mice and heterozygous MECP2knockout mice (HET) All mice were provided by Jackson Laboratory, Bar Harbor, Maine. HET mice were Bird mice (Jackson Laboratories, Bar Harbor, ME, B6.129P2(C)-Mecp2^tm1.1Bird/Stock Number: 003890) were obtained by crossing het females with wild type (WT) males (C57B/6J). […] Mecp2 females testing at ˜8 and ˜12 weeks of age WT—vehicle (0.25% MC/dH2O) HET—vehicle (0.25% MC/dH2O) HET—A2-733 (10 mg/kg) HET—A2-733 (30 mg/kg) Chronic dosing (p.o.) daily, starting at ˜5.5 weeks of age and continuing through the 12-week behavioral testing time point 60 min pre-treatment during behavioral testing. The acoustic startle measures an unconditioned reflex response to external auditory stimulation. Mice are placed in the prepulse inhibition (PPI) chambers for a 5 min session of white noise (70 dB) habituation. Then the session starts with a habituation block of 6 presentations of the startle stimulus alone, followed by 10 PPI blocks of 6 different types of trials [null (no stimuli), startle (120 dB), startle plus prepulse (4, 8 and 12 dB over background noise i.e. 74, 78 or 82 dB) and prepulse alone (82 dB)] presented at random within each block. The amount of inhibition of the normal startle is determined and expressed as a percentage of the basic startle response (from startle alone trials), excluding the startle response of the first habituation block.

[2] = Body weight of Mecp2 HET mice under chronic dosing; assay type: in vivo; settings: 30 mg/kg p.o. daily, 6.5 weeks after dosing began; Treatment×Age effect p<0.001
Protocol: Studies employed wild type (WT) mice and heterozygous MECP2knockout mice (HET) All mice were provided by Jackson Laboratory, Bar Harbor, Maine. HET mice were Bird mice (Jackson Laboratories, Bar Harbor, ME, B6.129P2(C)-Mecp2^tm1.1Bird/Stock Number: 003890) were obtained by crossing het females with wild type (WT) males (C57B/6J). […] Mecp2 females testing at ˜8 and ˜12 weeks of age WT—vehicle (0.25% MC/dH2O) HET—vehicle (0.25% MC/dH2O) HET—A2-733 (10 mg/kg) HET—A2-733 (30 mg/kg) Chronic dosing (p.o.) daily, starting at ˜5.5 weeks of age and continuing through the 12-week behavioral testing time point 60 min pre-treatment during behavioral testing. […] FIG. 1 There was a significant Treatment×Age effect (p<0.001), where mice treated with A2-733 (30 mg/kg) weighed less than vehicle-treated mutant mice 6.5 weeks after dosing began.

Angelman syndrome = assay: Example 5 sleep and seizures in Angelman syndrome patient; assay type: in vivo, human; settings: person, oral 30 mg/day, after 15 days
Protocol: A person presents with Angelman syndrome. They experience disturbed sleep and frequent seizures prior to commencing therapy. They begin treatment with oral doses of A2-73 at 30 mg/day.

[3] = tested on: relapsing-remitting multiple sclerosis; assay: Example 9 gadolinium-enhancing MRI lesions in relapsing-remitting multiple sclerosis patient; assay type: in vivo, human; settings: person, oral 30 mg every other day for 3 months, up to month 6
Protocol: A person presents with relapsing-remitting multiple sclerosis. They begin treatment with oral doses of A2-73 at 30 mg every other day for 3 months.

Smith—Magenis syndrome = assay: Example 7 sleep in Smith-Magenis syndrome patient; assay type: in vivo, human; settings: person, oral 10 mg/day, after 15 days
Protocol: A person presents with Smith—Magenis syndrome. They experience disturbed sleep. They begin treatment with oral doses of A2-73 at 10 mg/day.

[4] = tested on: heterozygous MECP2knockout mice (HET); assay: NeuroCube gait analysis; assay type: in vivo
Protocol: Studies employed wild type (WT) mice and heterozygous MECP2knockout mice (HET) All mice were provided by Jackson Laboratory, Bar Harbor, Maine. HET mice were Bird mice (Jackson Laboratories, Bar Harbor, ME, B6.129P2(C)-Mecp2^tm1.1Bird/Stock Number: 003890) were obtained by crossing het females with wild type (WT) males (C57B/6J). […] Mecp2 females testing at ˜8 and ˜12 weeks of age WT—vehicle (0.25% MC/dH2O) HET—vehicle (0.25% MC/dH2O) HET—A2-733 (10 mg/kg) HET—A2-733 (30 mg/kg) Chronic dosing (p.o.) daily, starting at ˜5.5 weeks of age and continuing through the 12-week behavioral testing time point 60 min pre-treatment during behavioral testing. Neurological testing via a platform that employs computer vision to detect changes in gait geometry and gait dynamics in rodent models of neurological disorders, pain, and neuropathies. Complex bio-informatics algorithms similar to those used in SmartCube® are employed to detect a disease phenotype and screen compounds. (NeuroCube, PsychoGenics, Tarrytown NY) A platform that employs computer vision to detect changes in gait geometry and gait dynamics in rodent models of neurological disorders, pain, and neuropathies. Mice are allowed to walk in the chamber for 5 min. When the paw touches the screen, LED light reflects creating bright spots. Images are captured and processed using proprietary computer vision and bio-informatics data mining algorithms.

SMILES: CN(C)CC1CCOC1(c1ccccc1)c1ccccc1.Cl (stereo not drawn) [A2-73, tetrahydro-N,N-dimethyl-2,2-diphenyl-3-furanmethanamine hydrochloride]
- PPI, treatment differences ([1]; 8 weeks of age): No treatment differences
- startle response vs vehicle-treated mutant mice ([1]; 8 weeks of age, 30 mg/kg p.o. daily): increased startle response
- startle response vs vehicle-treated mutant mice, outliers removed ([1]; 12 weeks of age, 30 mg/kg, outliers removed, p<0.01): increased startle
- startle response, treatment effect ([1]; 12 weeks of age, all data, p<0.08): trend of a treatment effect
- PPI treatment interaction, post hoc ([1]; 12 weeks of age, interaction p<0.05): did not reveal any significant post hoc differences
- body weight vs vehicle-treated mutant mice [2]: weighed less
- reduction of instances of seizure (Angelman syndrome): 50%
- sleep (Angelman syndrome): markedly less disturbed
- number of total gadolinium-enhancing lesions on monthly brain MRI [3]: significantly lower number
- sleep (Smith—Magenis syndrome): markedly less disturbed
- NeuroCube GAIT, Het vehicle v. Het AV2-73 ([4]; 8 week, 10 mg/kg, p > 0.09): 63, p > 0.09
- NeuroCube Body Motion, Het vehicle v. Het AV2-73 ([4]; 8 week, 10 mg/kg, p > 0.20): 60, p > 0.20
- NeuroCube Correlation, Het vehicle v. Het AV2-73 ([4]; 8 week, 10 mg/kg, p > 0.40): 56, p > 0.40
- NeuroCube Paw Positioning, Het vehicle v. Het AV2-73 ([4]; 8 week, 10 mg/kg, p > 0.57): 53, p > 0.57
- NeuroCube Overall, Het vehicle v. Het AV2-73 ([4]; 8 week, 10 mg/kg, p > 0.69): 53, p > 0.69
- NeuroCube Paw Features, Het vehicle v. Het AV2-73 ([4]; 8 week, 10 mg/kg, p > 0.78): 52, p > 0.78
- NeuroCube Body Motion, Het vehicle v. Het AV2-73 ([4]; 8 week, 30 mg/kg, p < 0.003): 81, p < 0.003
- NeuroCube Correlation, Het vehicle v. Het AV2-73 ([4]; 8 week, 30 mg/kg, p < 0.005): 76, p < 0.005
- NeuroCube GAIT, Het vehicle v. Het AV2-73 ([4]; 8 week, 30 mg/kg, p < 0.05): 69, p < 0.05
- NeuroCube Overall, Het vehicle v. Het AV2-73 ([4]; 8 week, 30 mg/kg, p > 0.24): 62, p > 0.24
- NeuroCube Paw Positioning, Het vehicle v. Het AV2-73 ([4]; 8 week, 30 mg/kg, p > 0.36): 57, p > 0.36
- NeuroCube Paw Features, Het vehicle v. Het AV2-73 ([4]; 8 week, 30 mg/kg, p > 0.56): 55, p > 0.56
- NeuroCube separation versus Het vehicle ([4]; 8 weeks of age): no separation
- recovery of the overall signature ([4]; 8 weeks of age, NeuroCube): 9-17%
- NeuroCube GAIT, Het vehicle v. Het AV2-73 ([4]; 12 week, 10 mg/kg, p > 0.29): 57, p > 0.29
- NeuroCube Paw Features, Het vehicle v. Het AV2-73 ([4]; 12 week, 10 mg/kg, p > 0.35): 56, p > 0.35
- NeuroCube Paw Positioning, Het vehicle v. Het AV2-73 ([4]; 12 week, 10 mg/kg, p > 0.57): 53, p > 0.57
- NeuroCube Correlation, Het vehicle v. Het AV2-73 ([4]; 12 week, 10 mg/kg, p > 0.70): 53, p > 0.70
- NeuroCube Overall, Het vehicle v. Het AV2-73 ([4]; 12 week, 10 mg/kg, p > 0.70): 53, p > 0.70
- NeuroCube Body Motion, Het vehicle v. Het AV2-73 ([4]; 12 week, 10 mg/kg, p > 0.71): 52, p > 0.71
- NeuroCube Correlation, Het vehicle v. Het AV2-73 ([4]; 12 week, 30 mg/kg, p < 0.03): 69, p < 0.03
- NeuroCube Body Motion, Het vehicle v. Het AV2-73 ([4]; 12 week, 30 mg/kg, p < 0.04): 68, p < 0.04
- NeuroCube Overall, Het vehicle v. Het AV2-73 ([4]; 12 week, 30 mg/kg, p > 0.21): 61, p > 0.21
- NeuroCube GAIT, Het vehicle v. Het AV2-73 ([4]; 12 week, 30 mg/kg, p > 0.37): 57, p > 0.37
- NeuroCube Paw Positioning, Het vehicle v. Het AV2-73 ([4]; 12 week, 30 mg/kg, p > 0.62): 53, p > 0.62
- NeuroCube Paw Features, Het vehicle v. Het AV2-73 ([4]; 12 week, 30 mg/kg, p > 0.65): 53, p > 0.65
